Assay results taken from ChEMBL document CHEMBL1130013, “Diltiazem-like calcium entry blockers: a hypothesis of the receptor-binding site based on a comparative molecular field analysis model” (J Med Chem, 1997).

Each molecule was assayed against Voltage-dependent L-type calcium channel subunit alpha-1D (Rattus norvegicus, UniProt P27732) (assay: Inhibition of [3H]nitrendipine binding to L-type [Ca2+] channel in rat cortex homogenate, activity expressed as pIC50).
Sequence of Voltage-dependent L-type calcium channel subunit alpha-1D (P27732 whole entry): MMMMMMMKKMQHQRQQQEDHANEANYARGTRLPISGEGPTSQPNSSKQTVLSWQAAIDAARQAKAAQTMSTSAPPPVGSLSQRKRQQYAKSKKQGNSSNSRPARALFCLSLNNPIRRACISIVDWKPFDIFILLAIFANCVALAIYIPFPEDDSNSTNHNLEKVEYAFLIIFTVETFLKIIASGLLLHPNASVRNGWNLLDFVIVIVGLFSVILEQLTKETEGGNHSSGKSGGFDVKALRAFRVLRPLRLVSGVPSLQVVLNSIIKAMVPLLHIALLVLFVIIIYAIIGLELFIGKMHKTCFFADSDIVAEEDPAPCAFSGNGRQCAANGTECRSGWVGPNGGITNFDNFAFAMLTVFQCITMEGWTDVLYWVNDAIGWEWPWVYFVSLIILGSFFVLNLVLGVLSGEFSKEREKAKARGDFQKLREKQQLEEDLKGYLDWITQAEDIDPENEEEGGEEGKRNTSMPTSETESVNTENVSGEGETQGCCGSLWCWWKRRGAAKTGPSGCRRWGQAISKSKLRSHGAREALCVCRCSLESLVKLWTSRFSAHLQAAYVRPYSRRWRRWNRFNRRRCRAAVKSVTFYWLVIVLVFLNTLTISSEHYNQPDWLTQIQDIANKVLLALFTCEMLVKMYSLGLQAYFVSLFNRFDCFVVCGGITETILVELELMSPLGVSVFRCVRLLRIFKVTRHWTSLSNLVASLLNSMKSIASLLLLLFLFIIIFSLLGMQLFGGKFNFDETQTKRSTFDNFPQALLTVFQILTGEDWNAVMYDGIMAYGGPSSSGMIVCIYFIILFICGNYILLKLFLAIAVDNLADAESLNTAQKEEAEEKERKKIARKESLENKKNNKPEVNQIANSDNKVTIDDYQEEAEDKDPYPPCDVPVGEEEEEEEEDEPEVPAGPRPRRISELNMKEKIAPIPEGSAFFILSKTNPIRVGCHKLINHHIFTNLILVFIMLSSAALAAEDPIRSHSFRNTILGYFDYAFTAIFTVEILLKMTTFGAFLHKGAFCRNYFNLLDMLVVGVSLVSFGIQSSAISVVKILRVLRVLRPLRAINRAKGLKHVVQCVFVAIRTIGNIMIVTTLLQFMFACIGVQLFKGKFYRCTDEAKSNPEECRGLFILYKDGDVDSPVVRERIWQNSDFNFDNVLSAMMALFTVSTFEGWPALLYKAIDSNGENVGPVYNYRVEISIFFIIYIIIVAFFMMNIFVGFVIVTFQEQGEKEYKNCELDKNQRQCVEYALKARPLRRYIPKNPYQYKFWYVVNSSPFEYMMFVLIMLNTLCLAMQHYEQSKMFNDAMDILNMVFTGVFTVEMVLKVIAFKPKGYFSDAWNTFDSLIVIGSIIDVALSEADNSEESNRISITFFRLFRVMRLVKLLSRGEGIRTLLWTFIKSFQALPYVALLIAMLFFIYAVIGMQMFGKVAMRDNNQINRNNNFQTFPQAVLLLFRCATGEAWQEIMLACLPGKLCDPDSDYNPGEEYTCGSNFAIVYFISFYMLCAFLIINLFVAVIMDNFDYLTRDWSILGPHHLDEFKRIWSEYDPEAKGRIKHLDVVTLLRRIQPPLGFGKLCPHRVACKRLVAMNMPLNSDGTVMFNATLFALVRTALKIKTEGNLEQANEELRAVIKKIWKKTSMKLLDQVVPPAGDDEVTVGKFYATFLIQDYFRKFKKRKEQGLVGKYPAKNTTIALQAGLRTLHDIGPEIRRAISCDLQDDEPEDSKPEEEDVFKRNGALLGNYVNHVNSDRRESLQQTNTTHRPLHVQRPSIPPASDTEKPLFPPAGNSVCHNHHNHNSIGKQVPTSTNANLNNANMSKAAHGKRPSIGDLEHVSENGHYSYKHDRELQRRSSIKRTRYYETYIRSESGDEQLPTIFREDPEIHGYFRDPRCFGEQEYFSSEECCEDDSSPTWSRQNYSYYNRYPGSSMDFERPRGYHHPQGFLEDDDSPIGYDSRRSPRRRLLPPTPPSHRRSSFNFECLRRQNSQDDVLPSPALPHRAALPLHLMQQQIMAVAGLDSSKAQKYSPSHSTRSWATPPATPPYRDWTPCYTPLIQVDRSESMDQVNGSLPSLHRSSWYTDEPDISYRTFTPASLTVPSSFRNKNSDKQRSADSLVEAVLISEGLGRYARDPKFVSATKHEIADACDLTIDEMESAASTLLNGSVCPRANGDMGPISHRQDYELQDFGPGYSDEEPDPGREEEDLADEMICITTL

Row | IC50 [nM] | SMILES
1 | 15.1 | CCC(C)NCc1ccc2n1-c1ccccc1SC2c1ccc(OC)cc1OC (centres undefined)
2 | 81.3 | CN(C)Cc1ccc2n1-c1cccc(Cl)c1SC2(c1ccccc1)c1ccccc1
3 | 2040 | FC(F)(F)c1ccc2c(c1)-n1cccc1C(c1ccccc1)(c1ccccc1)S2
4 | 1230 | CC(=O)O[C@H]1c2ccc(CN(C)C)n2-c2cc(Cl)ccc2S[C@H]1c1ccccc1
5 | 0.776 | O=C1CC[C@H]2[C@H](c3ccccc3)Sc3ccccc3N12
6 | 52.5 | COc1ccc(C2Sc3ccccc3-n3c(CN(C)CCc4ccc(OC)c(OC)c4)ccc32)cc1 (centres undefined)
7 | 12 | CCC(C)NCc1ccc2n1-c1ccccc1SC2C1=CCC(OC)(OC)C=C1 (centres undefined)
8 | 302 | CC(=O)O[C@H]1c2ccc(CN(C)C)n2-c2cc(C(F)(F)F)ccc2S[C@H]1c1ccccc1
9 | 4.37 | COc1ccc([C@@H]2Sc3ccccc3N3C(=O)CC[C@@H]23)cc1
10 | 107 | CN(C)Cc1ccc2n1-c1cc(C(F)(F)F)ccc1SC2(c1ccccc1)c1ccccc1
11 | 5010 | COc1ccc(C2Sc3ccccc3-n3c(CN4CCOCC4)ccc32)cc1 (centres undefined)
12 | 4370 | Clc1ccc2c(c1)-n1cccc1C(c1ccccc1)(c1ccccc1)S2
13 | 468 | c1ccc(C2(c3ccccc3)Sc3ccccc3-n3cccc32)cc1
14 | 4680 | CC(=O)OC1(c2ccccc2)Sc2ccccc2-n2cccc21 (centres undefined)
15 | 151 | COc1ccc(C2Sc3ccccc3-n3c(CN(C)C)ccc32)c(OC)c1 (centres undefined)
16 | 316 | CN(C)Cc1ccc2n1-c1ccccc1SC2c1ccccc1 (centres undefined)
17 | 316 | Clc1cccc2c1SC(c1ccccc1)(c1ccccc1)c1cccn1-2
18 | 3.31 | COc1ccc([C@@H]2Sc3ccc(Cl)cc3-n3c(CN(C)C)ccc3[C@@H]2OC(C)=O)cc1
19 | 2190 | COc1ccc(C2(c3ccc(OC)cc3)Sc3ccccc3-n3c(CN(C)C)ccc32)cc1
20 | 1580 | COc1ccc(C2Sc3ccccc3-n3c(CN(C)CCc4ccc(OC)c(OC)c4)ccc32)c(OC)c1 (centres undefined)
21 | 5010 | COC1(OC)C=CC(C2(C3=CCC(OC)(OC)C=C3)Sc3ccc(C(F)(F)F)cc3-n3cccc32)=CC1
22 | 5010 | COc1ccc([C@@H]2Sc3ccc(C(F)(F)F)cc3-n3c(CN(C)C)ccc3[C@@H]2OC(C)=O)cc1
23 | 30.2 | COc1ccc(C2(OC(C)=O)Sc3ccccc3-n3cccc32)cc1 (centres undefined)
24 | 64.6 | CC(=O)OC1(c2ccccc2)Sc2ccc(C(F)(F)F)cc2-n2cccc21 (centres undefined)
25 | 200 | COc1ccc(CCN(C)Cc2ccc3n2-c2ccccc2SC3c2ccccc2)cc1OC (centres undefined)
26 | 135 | COc1ccc([C@@H]2Sc3ccccc3-n3c(CN(C)C)ccc3[C@@H]2OC(C)=O)cc1
27 | 398 | COc1ccc(CCNCc2ccc3n2-c2ccccc2SC3C2=CCC(OC)(OC)C=C2)cc1OC (centres undefined)
28 | 5010 | COC1(OC)C=CC(C2(C3=CCC(OC)(OC)C=C3)Sc3ccccc3-n3cccc32)=CC1
29 | 5010 | CC(=O)O[C@H]1c2ccc(CN(C)C)n2-c2ccccc2S[C@H]1c1ccccc1
